# Patent publication US4596829A, “7-acylaminocephalosporanic acid derivatives and processes for the preparation thereof” (Fujisawa Pharmaceutical Co., Ltd., priority 1980, dated 1986)
# Legend:
# [1] = tested on: Pseudomonas aeruginosa NCTC-10490; assay: in vitro antimicrobial activity, two-fold agar-plate dilution method (MIC); type: cell-based; conditions: NCTC10490, heart infusion agar, 37° C., 20 hours
# Description: (§1) In vitro antimicrobial activity was determined by the two-fold agar-plate dilution method as described below.
# (§2) One loopful of an overnight culture of each test strain in Tripticase-soy broth (approximately 10^8 viable cells per ml) was streaked on heart infusion agar (HI-agar) containing graded concentrations of antimicrobial agents, and the minimal inhibitory concentration (MIC) was expressed in term of μg/ml after incubation at 37° C. for 20 hours.
# [2] = tested on: Proteus vulgaris IAM-1025; assay: as above; type: cell-based; conditions: IAM1025, heart infusion agar, 37° C., 20 hours
# Description: as §1, §2
Compound,MIC [1],MIC [2]
"CC(O/N=C(\C(=O)NC1C(=O)N2C(C(=O)O)=CCSC12)c1nc(N)sc1Cl)C(=O)O (stereo not drawn) [Compound 1, 7-[2-(2-amino-5-chlorothiazol-4-yl)-2-(1-carboxyethoxyimino)acetamido]-3-cephem-4-carboxylic acid (syn isomer)]",0.78 µg/mL,0.05 µg/mL
"Nc1nc(/C(=N/OCC(=O)O)C(=O)NC2C(=O)N3C(C(=O)O)=C(CSc4nncs4)CSC23)c(Cl)s1 (stereo not drawn) [Compound 3, 7-[2-(2-amino-5-chlorothiazol-4-yl)-2-carboxymethoxyiminoacetamido]-3-(1,3,4-thiadiazol-2-yl)thiomethyl-3-cephem-4-carboxylic acid (syn isomer)]",0.78 µg/mL,0.025 µg/mL
"Nc1nc(/C(=N/OCC(=O)O)C(=O)NC2C(=O)N3C(C(=O)O)=C(Cl)CSC23)c(Cl)s1 (stereo not drawn) [Compound 6, 7-[2-(2-amino-5-chlorothiazol-4-yl)-2-carboxymethoxyiminoacetamido]-3-chloro-3-cephem-4-carboxylic acid (syn isomer)]",0.78 µg/mL,0.05 µg/mL

# Other lines, results leading:
MIC [1],MIC [2],Compound
0.78 µg/mL,1.56 µg/mL,"C#CCO/N=C(\C(=O)NC1C(=O)N2C(C(=O)O)=C(CSc3nncs3)CSC12)c1nc(N)sc1Cl (stereo not drawn) [Compound 2, 7-[2-(2-amino-5-chlorothiazol-4-yl)-2-propargyloxyiminoacetamido]-3-(1,3,4-thiadiazol-2-yl)thiomethyl-3-cephem-4-carboxylic acid (syn isomer)]"
0.78 µg/mL,1.56 µg/mL,"C=CCO/N=C(\C(=O)NC1C(=O)N2C(C(=O)O)=C(CSc3nncs3)CSC12)c1nc(N)sc1Cl (stereo not drawn) [Compound 4, 7-[2-(2-amino-5-chlorothiazol-4-yl)-2-allyloxyiminoacetamido]-3-(1,3,4-thiadiazol-2-yl)thiomethyl-3-cephem-4-carboxylic acid (syn isomer)]"
0.39 µg/mL,0.39 µg/mL,"Nc1nc(/C(=N/OC2C=CCC2)C(=O)NC2C(=O)N3C(C(=O)O)=C(CSc4nncs4)CSC23)c(Cl)s1 (stereo not drawn) [Compound 5, 7-[2-(2-amino-5-chlorothiazol-4-yl)-2-(2-cyclopenten-1-yl)oxyiminoacetamido]-3-(1,3,4-thiadiazol-2-yl)thiomethyl-3-cephem-4-carboxylic acid (syn isomer)]"
